Source: ChEMBL document CHEMBL5143607, “Discovery and structure-activity relationships of a novel oxazolidinone class of bacterial type II topoisomerase inhibitors” (Bioorg Med Chem Lett, 2022)
Converted amounts (≈) assume the structure as drawn.

Experiments:
DNA gyrase = DNA gyrase (Escherichia coli, UniProt P0AES4+P0AES6); test: Inhibition of Escherichia coli DNA gyrase supercoiling activity; format: protein-complex assay
[1] = Inhibition of Escherichia coli topoisomerase 4 assessed as reduction in decatenation
[2] = Cytotoxicity against human HepG2 cells assessed as reduction in cell viability for 24 hrs by Celltiter-Glo assay; format: toxicity, cell-based
Acinetobacter baumannii [3] = test: Antibacterial activity against Acinetobacter baumannii NCTC 13420 assessed as bacterial growth inhibition by CLSI protocol based assay; format: functional
Klebsiella pneumoniae [4] = test: Antibacterial activity against Klebsiella pneumoniae ATCC 700603 assessed as bacterial growth inhibition by CLSI protocol based assay; format: functional
Pseudomonas aeruginosa [5] = test: Antibacterial activity against Pseudomonas aeruginosa ATCC 27853 assessed as bacterial growth inhibition by CLSI protocol based assay; format: functional
Escherichia coli [6] = test: Antibacterial activity against Escherichia coli W4573 assessed as bacterial growth inhibition by CLSI protocol based assay; format: functional
Escherichia coli [7] = test: Antibacterial activity against Escherichia coli N43 assessed as bacterial growth inhibition by CLSI protocol based assay; format: functional
Staphylococcus aureus = test: Antibacterial activity against Staphylococcus aureus ATCC 29213 assessed as bacterial growth inhibition by CLSI protocol based assay; format: functional
[8] = biological target: Voltage-gated inwardly rectifying potassium channel KCNH2 (Homo sapiens, UniProt Q12809); test: Inhibition of human ERG by Ionworks electrophysiology assay; format: toxicity
[9] = Lipophilicity, logD of the compound by shake flask assay; format: physicochemical; details: octanol/water
[10] = Intrinsic clearance in mouse liver microsomes in presence of NADPH and measured upto 45 mins; format: ADME, Microsome; details: read-out: CLH
[11] = Intrinsic clearance in human liver microsomes in presence of NADPH and measured upto 45 mins; format: ADME, Microsome; details: read-out: CLH
[12] = Kinetic solubility of compound; format: physicochemical; details: read-out: Kinetic_solubility
[13] = Plasma protein binding in mouse assessed as free fraction by equilibrium dialysis assay; format: ADME, cell-free
[14] = biological target: DNA topoisomerase 2-alpha (Homo sapiens, UniProt P11388); test: Inhibition of human topoisomerase 2 assessed as reduction in decatenation
Escherichia coli [15] = test: Resistance development in Escherichia coli ATCC25922 assessed as spontaneous resistance frequency at 4 times MIC by resistance development assay; format: functional
Escherichia coli [16] = test: Antibacterial activity against Escherichia coli ATCC25922 assessed as bacterial growth inhibition by CLSI protocol based assay; format: functional
Acinetobacter baumannii [17] = test: In vivo antibacterial activity against multidrug resistant Acinetobacter baumannii NCTC 13420 infected in mouse thigh infection model assessed in reduction in bacterial burden at 20 mg/kg, iv administered at 1 hr post infection and measured after 8 hrs (reference value: 5.4 log10CFU/g); format: functional
Acinetobacter baumannii [18] = test: In vivo antibacterial activity against multidrug resistant Acinetobacter baumannii NCTC 13420 infected in mouse thigh infection model assessed as log change in bacterial burden at 20 mg/kg, iv administered at 1 hr post infection and measured after 8 hrs relative to control; format: functional
Acinetobacter baumannii [19] = test: Antibacterial activity against […] Acinetobacter baumannii clinical isolate 43 assessed as bacterial growth inhibition by CLSI protocol based assay; format: functional
Pseudomonas aeruginosa [20] = test: Antibacterial activity against Pseudomonas aeruginosa clinical isolate 42 assessed as bacterial growth inhibition by CLSI protocol based assay; format: functional
Enterobacter cloacae = test: Antibacterial activity against Enterobacter cloacae clinical isolate 41 assessed as bacterial growth inhibition by CLSI protocol based assay; format: functional
Escherichia coli [21] = test: Antibacterial activity against Escherichia coli clinical isolate 42 assessed as bacterial growth inhibition by CLSI protocol based assay; format: functional
Klebsiella pneumoniae [22] = test: Antibacterial activity against Klebsiella pneumoniae clinical isolate 42 assessed as bacterial growth inhibition by CLSI protocol based assay; format: functional
[23] = Protein binding in mouse plasma by equilibrium dialysis assay; format: ADME, cell-free
[24] = Protein binding in human plasma by equilibrium dialysis assay; format: ADME, cell-free; details: read-out: PPB (converted)
Acinetobacter baumannii [25] = test: In vivo antibacterial activity against multidrug resistant Acinetobacter baumannii NCTC 13420 infected in mouse thigh infection model assessed in reduction in bacterial burden at 30 mg/kg, sc administered at 1 hr post infection and measured after 8 hrs (reference value: 5.4 log10CFU/g); format: functional
Acinetobacter baumannii [26] = test: In vivo antibacterial activity against multidrug resistant Acinetobacter baumannii NCTC 13420 infected in mouse thigh infection model assessed in reduction in bacterial burden at 45 mg/kg, sc administered at 1 hr post infection and measured after 8 hrs (reference value: 5.4 log10CFU/g); format: functional
Acinetobacter baumannii [27] = test: In vivo antibacterial activity against multidrug resistant Acinetobacter baumannii NCTC 13420 infected in mouse thigh infection model assessed in reduction in bacterial burden at 60 mg/kg, sc administered at 1 hr post infection and measured after 8 hrs (reference value: 5.4 log10CFU/g); format: functional
Acinetobacter baumannii [28] = test: In vivo antibacterial activity against multidrug resistant Acinetobacter baumannii NCTC 13420 infected in mouse thigh infection model assessed in reduction in bacterial burden at 120 mg/kg, sc administered at 1 hr post infection and measured after 8 hrs (reference value: 5.4 log10CFU/g); format: functional
Acinetobacter baumannii [29] = test: In vivo antibacterial activity against multidrug resistant Acinetobacter baumannii NCTC 13420 infected in mouse thigh infection model assessed as log change in bacterial burden at 30 mg/kg, sc administered at 1 hr post infection and measured after 8 hrs relative to control; format: functional
Acinetobacter baumannii [30] = test: In vivo antibacterial activity against multidrug resistant Acinetobacter baumannii NCTC 13420 infected in mouse thigh infection model assessed as log change in bacterial burden at 45 mg/kg, sc administered at 1 hr post infection and measured after 8 hrs relative to control; format: functional
Acinetobacter baumannii [31] = test: In vivo antibacterial activity against multidrug resistant Acinetobacter baumannii NCTC 13420 infected in mouse thigh infection model assessed as log change in bacterial burden at 60 mg/kg, sc administered at 1 hr post infection and measured after 8 hrs relative to control; format: functional
Acinetobacter baumannii [32] = test: In vivo antibacterial activity against multidrug resistant Acinetobacter baumannii NCTC 13420 infected in mouse thigh infection model assessed as log change in bacterial burden at 120 mg/kg, sc administered at 1 hr post infection and measured after 8 hrs relative to control; format: functional

Sequence of DNA topoisomerase 2-alpha (P11388 whole entry): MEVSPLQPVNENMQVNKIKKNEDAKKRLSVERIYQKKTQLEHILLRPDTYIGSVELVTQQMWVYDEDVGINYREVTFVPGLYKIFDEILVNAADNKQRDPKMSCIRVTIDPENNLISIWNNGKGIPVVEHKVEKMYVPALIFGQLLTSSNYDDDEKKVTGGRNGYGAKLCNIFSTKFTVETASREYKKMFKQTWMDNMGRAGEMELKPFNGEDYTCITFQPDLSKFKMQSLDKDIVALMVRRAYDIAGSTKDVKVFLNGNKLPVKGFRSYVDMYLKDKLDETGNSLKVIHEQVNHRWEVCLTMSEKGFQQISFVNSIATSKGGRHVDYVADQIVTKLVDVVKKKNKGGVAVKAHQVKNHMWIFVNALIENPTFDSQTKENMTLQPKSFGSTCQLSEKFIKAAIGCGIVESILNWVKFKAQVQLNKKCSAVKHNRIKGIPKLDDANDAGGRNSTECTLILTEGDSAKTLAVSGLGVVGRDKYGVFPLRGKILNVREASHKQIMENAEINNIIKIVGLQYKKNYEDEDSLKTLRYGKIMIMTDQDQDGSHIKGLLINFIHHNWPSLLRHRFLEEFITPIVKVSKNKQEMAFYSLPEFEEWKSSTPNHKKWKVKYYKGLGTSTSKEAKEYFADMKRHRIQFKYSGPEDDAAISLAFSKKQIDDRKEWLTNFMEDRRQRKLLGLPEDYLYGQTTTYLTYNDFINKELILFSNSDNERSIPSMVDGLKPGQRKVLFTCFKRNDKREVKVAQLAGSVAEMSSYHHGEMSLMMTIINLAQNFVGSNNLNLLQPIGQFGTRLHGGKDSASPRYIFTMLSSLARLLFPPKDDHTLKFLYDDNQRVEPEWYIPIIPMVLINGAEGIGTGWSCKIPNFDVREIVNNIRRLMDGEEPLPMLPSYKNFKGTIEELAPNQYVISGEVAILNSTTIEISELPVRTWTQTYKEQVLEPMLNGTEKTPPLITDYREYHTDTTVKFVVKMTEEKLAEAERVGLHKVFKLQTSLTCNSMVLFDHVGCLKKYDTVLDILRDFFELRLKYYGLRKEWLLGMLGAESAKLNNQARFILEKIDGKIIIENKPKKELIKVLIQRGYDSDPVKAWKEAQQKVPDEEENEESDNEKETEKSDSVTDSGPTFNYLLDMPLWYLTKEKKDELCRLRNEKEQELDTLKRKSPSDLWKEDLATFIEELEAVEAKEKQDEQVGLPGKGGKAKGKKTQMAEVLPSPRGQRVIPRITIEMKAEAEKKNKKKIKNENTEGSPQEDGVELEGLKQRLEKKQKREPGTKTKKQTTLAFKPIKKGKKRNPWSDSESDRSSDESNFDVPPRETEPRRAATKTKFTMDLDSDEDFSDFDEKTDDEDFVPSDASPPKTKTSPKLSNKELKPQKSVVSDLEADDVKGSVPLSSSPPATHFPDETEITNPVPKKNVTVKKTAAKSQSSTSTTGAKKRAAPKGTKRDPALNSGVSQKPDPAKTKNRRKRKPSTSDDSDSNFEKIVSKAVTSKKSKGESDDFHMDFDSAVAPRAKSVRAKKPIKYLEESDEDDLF
Sequence of Voltage-gated inwardly rectifying potassium channel KCNH2 (Q12809 whole entry): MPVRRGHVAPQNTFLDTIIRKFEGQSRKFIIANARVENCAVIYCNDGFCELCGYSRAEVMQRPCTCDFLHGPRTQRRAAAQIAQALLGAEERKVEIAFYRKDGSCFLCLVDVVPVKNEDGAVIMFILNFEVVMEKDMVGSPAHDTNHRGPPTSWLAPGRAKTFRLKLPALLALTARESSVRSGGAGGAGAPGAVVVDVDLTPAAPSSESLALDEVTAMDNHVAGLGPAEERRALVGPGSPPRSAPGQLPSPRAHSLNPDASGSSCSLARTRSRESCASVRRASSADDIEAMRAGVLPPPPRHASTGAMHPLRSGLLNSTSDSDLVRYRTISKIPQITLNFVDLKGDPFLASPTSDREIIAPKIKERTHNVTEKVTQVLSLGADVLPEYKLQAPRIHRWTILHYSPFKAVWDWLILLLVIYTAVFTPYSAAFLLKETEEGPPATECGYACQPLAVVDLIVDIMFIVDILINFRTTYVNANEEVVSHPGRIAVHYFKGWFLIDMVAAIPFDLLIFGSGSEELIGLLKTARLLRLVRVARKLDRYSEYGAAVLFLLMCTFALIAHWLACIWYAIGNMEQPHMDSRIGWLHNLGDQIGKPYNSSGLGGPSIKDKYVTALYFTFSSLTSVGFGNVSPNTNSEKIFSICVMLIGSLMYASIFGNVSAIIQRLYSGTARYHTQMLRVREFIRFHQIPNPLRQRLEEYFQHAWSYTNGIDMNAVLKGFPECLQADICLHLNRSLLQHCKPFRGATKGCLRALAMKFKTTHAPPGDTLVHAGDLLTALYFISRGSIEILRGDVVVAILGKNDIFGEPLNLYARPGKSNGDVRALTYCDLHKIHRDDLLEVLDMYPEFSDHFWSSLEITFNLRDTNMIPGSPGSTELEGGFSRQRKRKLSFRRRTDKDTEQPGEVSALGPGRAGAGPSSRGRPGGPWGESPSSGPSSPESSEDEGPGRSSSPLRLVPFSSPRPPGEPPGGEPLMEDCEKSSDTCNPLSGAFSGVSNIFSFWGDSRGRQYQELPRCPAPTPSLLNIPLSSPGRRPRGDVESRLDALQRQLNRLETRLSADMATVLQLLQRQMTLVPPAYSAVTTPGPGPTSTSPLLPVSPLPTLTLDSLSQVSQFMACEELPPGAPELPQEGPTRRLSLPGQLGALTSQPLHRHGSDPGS

| Structure (SMILES) | IC50 (DNA gyrase) | IC50 [1] | IC50 at 24 h [2] | MIC (Acinetobacter baumannii [3]) | MIC (Klebsiella pneumoniae [4]) | MIC (Pseudomonas aeruginosa [5]) | MIC (Escherichia coli [6]) | MIC (Escherichia coli [7]) | MIC (Staphylococcus aureus) | IC50 [8] | logD [9] | microsomal CLint [10] | IC50 [14] | Activity (Escherichia coli [15]) | MIC (Escherichia coli [16]) | MIC90 (Acinetobacter baumannii [19]) | MIC90 (Pseudomonas aeruginosa [20]) | MIC90 (Enterobacter cloacae) | MIC90 (Escherichia coli [21]) | MIC90 (Klebsiella pneumoniae [22]) | other results |
| --- | --- | --- | --- | --- | --- | --- | --- | --- | --- | --- | --- | --- | --- | --- | --- | --- | --- | --- | --- | --- | --- |
| N#Cc1ccc2ccc(=O)n(CCN[C@H]3CC[C@H]4[C@H](C3)OC(=O)N4c3ccc4c(n3)NC(=O)CO4)c2c1 | 30 nM | 230 nM | > 128 µg/mL | 0.25 µg/mL (≈ 0.499 µM) | 2 µg/mL (≈ 4 µM) | 2 µg/mL (≈ 4 µM) | 0.03 µg/mL (≈ 0.0599 µM) | ≤ 0.002 µg/mL | 0.03 µg/mL (≈ 0.0599 µM) | > 100000 nM | 1.51 | 125 µL/min/mg | 72800 nM | <7.1 10^-9No_unit | 0.25 µg/mL (≈ 0.499 µM) | – | – | – | – | – | microsomal CLint [11]: 59 µL/min/mg; solubility kinetic [12]: 62 µM (≈ 31 µg/mL); fraction unbound [13]: > 0.3 |
| CN(C)c1cc(NC(=O)CNC(C)(C)C)c(O)c2c1C[C@H]1C[C@H]3[C@H](N(C)C)C(O)=C(C(N)=O)C(=O)[C@@]3(O)C(O)=C1C2=O [TIGECYCLINE] | – | – | – | – | – | – | – | – | – | – | – | – | – | – | – | – | – | – | – | – | Activity (Acinetobacter baumannii [17]): 4.2 log10CFU/g; Activity (Acinetobacter baumannii [18]): -1.2 log10CFU/g |
| C[C@H]1COc2c(N3CCN(C)CC3)c(F)cc3c(=O)c(C(=O)O)cn1c23.C[C@H]1COc2c(N3CCN(C)CC3)c(F)cc3c(=O)c(C(=O)O)cn1c23.O [LEVOFLOXACIN] | – | – | – | – | – | – | – | – | – | – | – | – | – | – | – | 16 µg/mL | 32 µg/mL | 32 µg/mL | 16 µg/mL | 16 µg/mL | – |
| O=c1ccc2ncc(=O)n3c2n1C[C@H]3CN1CCC(NCc2cc3c(cn2)OCCC3)CC1 [GEPOTIDACIN] | – | 35 nM | > 128 µg/mL | 16 µg/mL (≈ 35.7 µM) | 16 µg/mL (≈ 35.7 µM) | 2 µg/mL (≈ 4.46 µM) | 0.5 µg/mL (≈ 1.11 µM) | 0.015 µg/mL (≈ 0.0334 µM) | 0.5 µg/mL (≈ 1.11 µM) | > 100000 nM | -0.63 | – | 55200 nM | <2 10^-8No_unit | 0.03 µg/mL (≈ 0.0669 µM) | 32 µg/mL (≈ 71.3 µM) | 16 µg/mL (≈ 35.7 µM) | 16 µg/mL (≈ 35.7 µM) | 4 µg/mL (≈ 8.92 µM) | 16 µg/mL (≈ 35.7 µM) | fraction unbound ([23]; read-out: PPB (converted)): < 0.7; fraction unbound [24]: < 0.7 |
| COc1ccc2ccc(=O)n(CCN[C@H]3CC[C@H]4[C@H](C3)OC(=O)N4c3ccc4c(n3)NC(=O)CO4)c2n1 | 55 nM | 10 nM | > 64 µg/mL | 0.03 µg/mL (≈ 0.0592 µM) | 4 µg/mL (≈ 7.9 µM) | 1 µg/mL (≈ 1.97 µM) | 0.12 µg/mL (≈ 0.237 µM) | < 0.008 µg/mL | 0.008 µg/mL (≈ 0.0158 µM) | 5000 nM | 1.95 | 264 µL/min/mg | 14400 nM | <2.4 10^-9No_unit | 0.06 µg/mL (≈ 0.118 µM) | 0.5 µg/mL (≈ 0.987 µM) | 4 µg/mL (≈ 7.9 µM) | 4 µg/mL (≈ 7.9 µM) | 1 µg/mL (≈ 1.97 µM) | 4 µg/mL (≈ 7.9 µM) | PPB [23]: 15.8%; fraction unbound [24]: 0.856; microsomal CLint [11]: 110 µL/min/mg; solubility kinetic [12]: 76 µM (≈ 38.5 µg/mL); Fu [13]: 15%; Activity (Acinetobacter baumannii [25]): 7.1 log10CFU/g; Activity (Acinetobacter baumannii [26]): 6.6 log10CFU/g; Activity (Acinetobacter baumannii [27]): 4.4 log10CFU/g; Activity (Acinetobacter baumannii [28]): 3.9 log10CFU/g; Activity (Acinetobacter baumannii [29]): 1.7 log10CFU/g; Activity (Acinetobacter baumannii [30]): 1.2 log10CFU/g; Activity (Acinetobacter baumannii [31]): -1 log10CFU/g; Activity (Acinetobacter baumannii [32]): -1.5 log10CFU/g |
